PubChem BioAssay AID226 (DTP/NCI, 2004)
“And” between values parts separate entries of the source, which are not always exact repeats. Identical values can stand only once. Inconclusive results and toxic doses are left out.

Test system: B6C3F1 mice, intracerebral ependymoblastoma, median survival T/C
Experiment: NCI In Vivo Anticancer Drug Screen. Data for tumor model Ependymoblastoma (intracerebral) in B6C3F1 mice
Conditions: endpoint: median survival time, higher = longer survival
Method: The antitumor activity of compounds was measured in mice bearing transplantable tumors. Survival or tumor size were measured and the results are expressed as the measurement made in the treated group (T) divided by the measurement made in the vehicle treated control group (C). The tumor model used in this assay is Ependymoblastoma (intracerebral) in B6C3F1 mice

[1] = dose: 16.0 mg/kg/injection, schedule: Q01DX005 (ip), vehicle: saline with Tween-80
[2] = dose: 32.0 mg/kg/injection, schedule: Q01DX005 (ip), vehicle: saline
[3] = dose: 64.0 mg/kg/injection, schedule: Q01DX005 (ip), vehicle: saline with Tween-80
[4] = dose: 64.0 mg/kg/injection, schedule: Q01DX005 (ip), vehicle: saline
[5] = dose: 128.0 mg/kg/injection, schedule: Q01DX005 (ip), vehicle: saline
[6] = dose: 256.0 mg/kg/injection, schedule: Q01DX005 (ip), vehicle: saline
[7] = dose: 128.0 mg/kg/injection, schedule: Q01DX005 (ip), vehicle: saline with Tween-80
[8] = dose: 32.0 mg/kg/injection, schedule: Q01DX005 (ip), vehicle: saline with Tween-80

C[C@@H](CN1CC(=O)NC(=O)C1)N1CC(=O)NC(=O)C1
T/C (dose: 4.0 mg/kg/injection, schedule: Q01DX005 (ip), vehicle: Klucel (hydroxypropylcellulose) (HPC)): 112 % of control and 120 % of control | T/C (dose: 4.0 mg/kg/injection, schedule: Q01DX005 (ip), vehicle: saline with Tween-80): 116 % of control and 117 % of control | T/C (dose: 4.0 mg/kg/injection, schedule: Q01DX005 (ip), vehicle: water): 102 % of control | T/C (dose: 8.0 mg/kg/injection, schedule: Q01DX005 (ip), vehicle: saline with Tween-80): 108 % of control | T/C (dose: 16.0 mg/kg/injection, schedule: Q01DX005 (ip), vehicle: Klucel (hydroxypropylcellulose) (HPC)): 108 % of control and 111 % of control | T/C [1]: 114 % of control and 118 % of control | T/C (dose: 16.0 mg/kg/injection, schedule: Q01DX005 (ip), vehicle: water): 105 % of control | T/C [2]: 102 % of control and 114 % of control | T/C (dose: 32.0 mg/kg/injection, schedule: Q01DX005 (oral), vehicle: saline): 109 % of control | T/C (dose: 64.0 mg/kg/injection, schedule: Q01DX005 (ip), vehicle: Klucel (hydroxypropylcellulose) (HPC)): 107 % of control and 115 % of control | T/C [3]: 114 % of control | T/C [4]: 123 % of control | T/C (dose: 64.0 mg/kg/injection, schedule: Q01DX005 (ip), vehicle: water): 108 % of control | T/C [5]: 120 % of control | T/C (dose: 128.0 mg/kg/injection, schedule: Q#A X002 (ip), vehicle: saline): 103 % of control | T/C (dose: 256.0 mg/kg/injection, schedule: Q01DX001 (ip), vehicle: saline): 107 % of control and 111 % of control and 113 % of control | T/C (dose: 256.0 mg/kg/injection, schedule: Q01DX001 (oral), vehicle: saline): 109 % of control and 123 % of control and 124 % of control | T/C (dose: 256.0 mg/kg/injection, schedule: Q01DX005 (ip), vehicle: Klucel (hydroxypropylcellulose) (HPC)): 112 % of control and 122 % of control | T/C [6]: 120 % of control and 122 % of control | T/C (dose: 256.0 mg/kg/injection, schedule: Q#A X002 (ip), vehicle: saline): 113 % of control | T/C (dose: 512.0 mg/kg/injection, schedule: Q01DX001 (ip), vehicle: saline): 109 % of control and 118 % of control | T/C (dose: 512.0 mg/kg/injection, schedule: Q01DX001 (oral), vehicle: saline): 119 % of control and 121 % of control | T/C (dose: 512.0 mg/kg/injection, schedule: Q#A X002 (ip), vehicle: saline): 121 % of control | T/C (dose: 1024.0 mg/kg/injection, schedule: Q01DX001 (ip), vehicle: saline): 114 % of control and 121 % of control | T/C (dose: 1024.0 mg/kg/injection, schedule: Q01DX001 (oral), vehicle: saline): 119 % of control | T/C (dose: 1024.0 mg/kg/injection, schedule: Q#A X002 (ip), vehicle: saline): 121 % of control | T/C (dose: 2048.0 mg/kg/injection, schedule: Q01DX001 (oral), vehicle: saline): 102 % of control and 121 % of control

CN1C(=O)CC(c2ccc(NC(=O)N(CCCl)N=O)cc2)C1=O (stereo not drawn)
T/C (dose: 0.75 mg/kg/injection, schedule: Q01DX005 (ip), vehicle: distilled water + Tween-80): 119 % of control | T/C (dose: 1.5 mg/kg/injection, schedule: Q01DX005 (ip), vehicle: distilled water + Tween-80): 180 % of control | T/C (dose: 6.0 mg/kg/injection, schedule: Q01DX005 (ip), vehicle: distilled water + Tween-80): 210 % of control | T/C (dose: 12.0 mg/kg/injection, schedule: Q01DX005 (ip), vehicle: distilled water + Tween-80): 240 % of control

CN(C)/N=N/c1[nH]ncc1C(N)=O
T/C [2]: 150 % of control | T/C [4]: 176 % of control | T/C [7]: 151 % of control | T/C [5]: 155 % of control | T/C [6]: 96 % of control

CCC(C)N(C)/N=N/c1nc[nH]c1C(N)=O (stereo not drawn)
T/C [8]: 151 % of control | T/C [3]: 153 % of control | T/C [7]: 153 % of control

NC(C/[N+]([O-])=N/O)C(=O)O (stereo not drawn)
T/C (dose: 7.0 mg/kg/injection, schedule: Q01DX005 (ip), vehicle: saline with Tween-80): 111 % of control | T/C (dose: 12.5 mg/kg/injection, schedule: Q01DX009 (ip), vehicle: Klucel (hydroxypropylcellulose) (HPC)): 110 % of control | T/C (dose: 14.0 mg/kg/injection, schedule: Q01DX005 (ip), vehicle: saline with Tween-80): 109 % of control | T/C [1]: 114 % of control | T/C (dose: 25.0 mg/kg/injection, schedule: Q01DX009 (ip), vehicle: Klucel (hydroxypropylcellulose) (HPC)): 119 % of control | T/C (dose: 28.0 mg/kg/injection, schedule: Q01DX005 (ip), vehicle: saline with Tween-80): 118 % of control | T/C [8]: 118 % of control | T/C (dose: 50.0 mg/kg/injection, schedule: Q01DX009 (ip), vehicle: Klucel (hydroxypropylcellulose) (HPC)): 112 % of control | T/C (dose: 56.0 mg/kg/injection, schedule: Q01DX005 (ip), vehicle: saline with Tween-80): 119 % of control | T/C [3]: 117 % of control | T/C (dose: 112.0 mg/kg/injection, schedule: Q01DX005 (ip), vehicle: saline with Tween-80): 122 % of control | T/C (dose: 256.0 mg/kg/injection, schedule: Q01DX005 (ip), vehicle: saline with Tween-80): 109 % of control

NC(=S)N/N=C/c1ccc(O)cn1
T/C (dose: 12.0 mg/kg/injection, schedule: Q01DX005 (ip), vehicle: saline): 102 % of control | T/C (dose: 24.0 mg/kg/injection, schedule: Q01DX005 (ip), vehicle: saline): 107 % of control | T/C (dose: 48.0 mg/kg/injection, schedule: Q01DX005 (ip), vehicle: saline): 110 % of control | T/C (dose: 96.0 mg/kg/injection, schedule: Q01DX005 (ip), vehicle: saline): 115 % of control

COc1ccc(C(=O)/C(Br)=C/C(=O)O)cc1
T/C (dose: 10.0 mg/kg/injection, schedule: Q01DX005 (ip), vehicle: saline): 92 % of control and 104 % of control | T/C (dose: 20.0 mg/kg/injection, schedule: Q01DX005 (ip), vehicle: saline): 96 % of control and 103 % of control | T/C (dose: 40.0 mg/kg/injection, schedule: Q01DX005 (ip), vehicle: saline): 94 % of control and 104 % of control
